This experiment deals with Human CD34+ hematopoietic stem cells (HSCs) / erythroid progenitor cell cultures. Kind of experiment: Effect of myo-inositol on erythroid cell growth and enucleation (three-stage culture, maturation phase). To be noted: third culture medium (maturation phase, 24 well plate) supplemented with an additional 1 g/L myo-inositol vs not supplemented control (basal IMDM 0.0072 g/L), FACS-based cell counting. As for the experimental part: The effect of myo-inositol on erythroid progenitor cell cultures was examined. Human CD34^+ hematopoietic stem cells (HSCs) were cultured in a three-stage process to generate enucleated erythroid cells. In the first stage, the CD34+ HSCs were expanded in a T-flask in a first culture medium containing IMDM supplemented recombinant human insulin, recombinant human transferrin, recombinant human SCF, recombinant IL-3, recombinant Flt-3 ligand, and recombinant human IL-3. Subsequently, cells were transduced with a lentiviral vector encoding phenylalanine ammonia lyase. After transduction, cells were cultured in a 50 L bioreactor culture vessel containing a second culture medium containing IMDM, supplemented with recombinant human erythropoietin, recombinant human SCF, recombinant human IL3, recombinant human insulin, dexamethasone, and recombinant human transferrin. For the third stage of the process (maturation phase), an aliquot of cells were seeded into 24 well plate containing a third culture medium containing IMDM supplemented with recombinant human EPO, recombinant human SCF, recombinant human insulin, recombinant transferrin, human AB serum, and human plasma. […] Periodic sampling and cell counting was performed during the third stage using a fluorescence-activated cell sorting-based cell counter.

Regarding `O[C@H]1[C@H](O)[C@@H](O)[C@H](O)[C@@H](O)[C@H]1O` [myo-inositol], the “total cell density of erythroid cells” value (FIG. 1) was “significantly increase”. For the same compound, where the note is “FIG. 2”, the “enucleated erythroid cell density” value is on record as “significantly increase”.

The record behind these values is patent US20210130780A1, “METHODS OF GENERATING ENUCLEATED ERYTHROID CELLS USING MYO-INOSITOL” (Rubius Therapeutics, Inc., priority 2019, published 2021).
